According to US20250304635A1, “BIRINAPANT POLYMORPH H” (Medivir AB, priority 2022, published 2025):

Assays:
Format in all cases: physicochemical
[1] = Stability studies under elevated temperature and relative humidity; crystalline form by XRPD, birefringence by polarized light microscopy
[2] = TGA study; conditions: between about 25° C. and 300° C.
Procedure: TGA analysis was performed using a Mettler-Toledo TGA/DSC3 analyzer. Temperature and enthalpy adjustments were performed using indium, tin, and zinc, and then verified with indium. The balance was verified with calcium oxalate. The sample was placed in an open aluminum pan. The pan was hermetically sealed, the lid pierced, and then inserted into the TG furnace. A weighed aluminum pan configured as the sample pan was placed on the reference platform. The furnace was heated under nitrogen. Each sample was heated from ambient temperature to 350° C. at 10° C./min. The thermograms were plotted by reference temperature (x-axis) and results were reported according to sample temperatures. Briefly, a sample of biripant Form H was heated from about 25° C. to about 400° C. […] Between about 340° C. and 400° C., weight loss was observed, corresponding to the thermal decomposition of birinapant.

[3] = Dynamic vapor sorption (DVS) study; parameters: Hysteresis: unit not given here; conditions: 25° C.
Procedure: Automated vapor sorption (VS) data were collected on a Surface Measurement System DVS Intrinsic instrument. Samples were not dried prior to analysis. Sorption and desorption data were collected over a range from 5% to 95% RH at 10% RH increments under a nitrogen purge. The equilibrium criterion used for analysis was less than 0.0100% weight change in 5 minutes with a maximum equilibration time of 3 hours. Data were not corrected for the initial moisture content of the samples. This study was performed at a temperature of 25° C., and the relative humidity was cycled between about 5% and about 95%.

[4] = Stability studies under elevated temperature and relative humidity; crystalline form by XRPD, birefringence by polarized light microscopy; remark: listed apart in the source
Procedure: XRPD patterns were collected with a PANalytical Empyrean diffractometer using an incident beam of Cu radiation produced using a long, fine-focus source. An elliptically graded multilayer mirror was used to focus Cu Kα X-rays through the specimen and onto the detector. Prior to analysis, a silicon specimen (NIST SRM 640e) was analyzed to verify the observed position of the Si 111 peak is consistent with the NIST-certified position. A specimen of the sample was sandwiched between 3-μm-thick films and analyzed in transmission geometry. A beam-stop, short antiscatter extension, and antiscatter knife edge were used to minimize the background generated by air. Soller slits for the incident and diffracted beams were used to minimize broadening and asymmetry from axial divergence. Diffraction patterns were collected using a scanning position-sensitive detector (X′Celerator) located 240 mm from the specimen and Data Collector software v. 5.5. Additional stability studies under elevated temperature and relative humidity (RH) conditions were also performed. Samples of birinapant form H were subjected to various temperature and humidity conditions for up to 105 days, and samples were taken at 17, 33, and 105 days. For each sample the identity of the crystalline form of the sample was assessed using XRPD and the birefringence of the sample was assessed using polarized light microscopy. Additionally, XRPD patterns for several time points are provided for the 60° C. study, the 30° C./62% RH study, and the 40° C./75% RH study in FIGS. 6, 7, and 8, respectively. The time points shown are at the start of the study (top pattern), after 17 days (pattern second from top), after 33 days (pattern third from top), and after 105 days (bottom pattern). Additional stability studies under elevated temperature and relative humidity (RH) conditions were also performed. Samples of birinapant form H were subjected to various temperature and humidity conditions for up to 182 days, and samples were taken at […]. For each sample the identity of the crystalline form of the sample was assessed using XRPD and the birefringence of the sample was assessed using polarized light microscopy. The “RESULT” column indicates the form that was observed. Additionally, XRPD patterns for several time points are provided for the 60° C. study, the 30° C./62% RH study, and the 40° C./75% RH study in FIG. 9. The spectra shown in FIG. 9 correspond to the 60° C. study after 33 days (top trace), the 60° C. study after 182 days (trace second from top), the 30° C./62% RH study after 33 days (trace third from top), the 30° C./62% RH study after 182 days (trace fourth from top), the 40° C./75% RH study after 33 days (trace fifth from top), and the 40° C./75% RH study after 182 days (trace sixth from top). A representative XRPD trace for birinapant form H prior to stressing is also shown for comparison (bottom trace).

[5] = Stability study: material left open to air at room temperature and exposed to light for one month (HPLC, Karl Fischer); conditions: room temperature, exposed to light
Procedure: A stability study of birinapant form H was performed by leaving the material open to air at room temperature and exposed to light for one month. […] A stability study of birinapant form H was performed by leaving the material open to air at room temperature and exposed to light for one month.

[6] = target RH 95.0%, sample RH 95.7%

CC[C@H](NC(=O)[C@H](C)NC)C(=O)N1C[C@@H](O)C[C@H]1Cc1c(-c2[nH]c3cc(F)ccc3c2C[C@@H]2C[C@H](O)CN2C(=O)[C@H](CC)NC(=O)[C@H](C)NC)[nH]c2cc(F)ccc12 [birinapant Form H, (2S,2'S)—N,N′-((2S,2'S)-((3S,3'S,5R,5′R)-((6,6′-difluoro-1H,1′H-[2,2′-biindole]-3,3′-diyl)bis(methylene))bis(3-hydroxypyrrolidine-5,1-diyl))bis(1-oxobutane-1,2-diyl))bis(2-(methylamino)propanamide)]
Observation ([1]; 245° C., 1 hr): light tan solids
Observation ([1]; RT, 53% RH, 18 d, B = birefringence): fines, B sample faint pale yellow
Observation ([1]; Table 5: 245° C., 1 hr): light tan solids
weight loss on heating (TGA) [2]: No weight loss
Cycle 1 Sorp Mass Change ([3]; target RH 5.0%, sample RH 5.1%): 0.000%
Cycle 1 Desorp Mass Change ([3]; target RH 5.0%, sample RH 5.5%): 0.020%
Hysteresis ([3]; target RH 15.0%): 0.192
Cycle 1 Sorp Mass Change ([3]; target RH 15.0%, sample RH 15.6%): 0.365%
Cycle 1 Desorp Mass Change ([3]; target RH 15.0%, sample RH 16.1%): 0.557%
Hysteresis ([3]; target RH 25.0%): 0.197
Cycle 1 Sorp Mass Change ([3]; target RH 25.0%, sample RH 25.1%): 0.732%
Cycle 1 Desorp Mass Change ([3]; target RH 25.0%, sample RH 25.6%): 0.929%
Hysteresis ([3]; target RH 35.0%): 0.237
Cycle 1 Sorp Mass Change ([3]; target RH 35.0%, sample RH 34.7%): 1.001%
Cycle 1 Desorp Mass Change ([3]; target RH 35.0%, sample RH 35.3%): 1.238%
Hysteresis ([3]; target RH 45.0%): 0.308
Cycle 1 Sorp Mass Change ([3]; target RH 45.0%, sample RH 45.0%): 1.224%
Cycle 1 Desorp Mass Change ([3]; target RH 45.0%, sample RH 45.6%): 1.532%
Hysteresis ([3]; target RH 55.0%): 0.379
Cycle 1 Sorp Mass Change ([3]; target RH 55.0%, sample RH 54.7%): 1.436%
Cycle 1 Desorp Mass Change ([3]; target RH 55.0%, sample RH 55.4%): 1.815%
Hysteresis ([3]; target RH 65.0%): 0.425
Cycle 1 Sorp Mass Change ([3]; target RH 65.0%, sample RH 64.7%): 1.652%
Cycle 1 Desorp Mass Change ([3]; target RH 65.0%, sample RH 65.5%): 2.078%
Hysteresis ([3]; target RH 75.0%): 0.428
Cycle 1 Sorp Mass Change ([3]; target RH 75.0%, sample RH 74.7%): 1.908%
Cycle 1 Desorp Mass Change ([3]; target RH 75.0%, sample RH 75.3%): 2.336%
Hysteresis ([3]; target RH 85.0%): 0.347
Cycle 1 Sorp Mass Change ([3]; target RH 85.0%, sample RH 84.9%): 2.263%
Cycle 1 Desorp Mass Change ([3]; target RH 85.0%, sample RH 86.0%): 2.610%
Cycle 1 Desorp Mass Change [3, 6]: 2.904%
Cycle 1 Sorp Mass Change [3, 6]: 2.904%
Observation ([4]; 30° C., 62% RH, 17 d, B = birefringence): fines, B
Observation ([4]; 30° C., 62% RH, 105 d, B = birefringence): white fines, B
Observation ([4]; 40° C., 75% RH, 17 d, B = birefringence): fines, B
Observation ([4]; 40° C., 75% RH, 33 d): white solids
Observation ([4]; 40° C., 75% RH, 105 d, B = birefringence): white fines, B
Observation ([4]; 60° C., 17 d, B = birefringence): fines, B
Observation ([4]; 60° C., 33 d): white to off-white in color
Observation ([4]; 60° C., 105 d): off-white
Observation ([4]; 80° C., 17 d, B = birefringence): fines, B sample faint pale yellow
Observation ([4]; 80° C., 33 d): pale yellow in color
Observation ([4]; RT, 98% RH, 18 d, B = birefringence): fines, B sample faint pale yellow
Observation ([4]; Table 5: 30° C., 62% RH, 17 d, B = birefringence): fines, B
Observation ([4]; Table 5: 30° C., 62% RH, 105 d, B = birefringence): white fines, B
Observation ([4]; Table 5: 30° C., 62% RH, 182 d, power outage 1 hour on day 125): white solids^d
Observation ([4]; Table 5: 40° C., 75% RH, 17 d, B = birefringence): fines, B
Observation ([4]; Table 5: 40° C., 75% RH, 33 d): white solids
Observation ([4]; Table 5: 40° C., 75% RH, 105 d, B = birefringence): white fines, B
Observation ([4]; Table 5: 40° C., 75% RH, 182 d, power outage 1 hour on day 125): white solids^e
Observation ([4]; Table 5: 60° C., 17 d, B = birefringence): fines, B
Observation ([4]; Table 5: 60° C., 33 d): white to off-white in color
Observation ([4]; Table 5: 60° C., 105 d): off-white
Observation ([4]; Table 5: 60° C., 182 d, temperature excursions: 105° C. 3 hours on day 113, power outage 1 hour on day 125): off-white to pale yellow^c
Observation ([4]; Table 5: 80° C., 17 d, B = birefringence): fines, B sample faint pale yellow
Observation ([4]; Table 5: 80° C., 33 d): pale yellow in color
Observation ([4]; Table 5: RT, 53% RH, 18 d, B = birefringence): fines, B sample faint pale yellow
Observation ([4]; Table 5: RT, 98% RH, 18 d, B = birefringence): fines, B sample faint pale yellow
appearance of the surface of the solid [5]: discolored slightly
purity of birinapant by HPLC after storage [5]: 99.9%
